For data set [1] the following is noted: racemic mixture administered to a human; cited from earlier work.
Data set [2] in a line: release rate of the active ingredient from capsules and tablets (European Pharmacopoeia, chapter 2.9.3.). Particulars: tablets of recipe C2 composition with fine-crystalline mixture of the drug and microcrystalline cellulose, direct pressing (FIG. 5 and 6). Type of data set: physicochemical. How it is done: The release rate of the active ingredient from the capsules prepared by the process described above, and for comparison also from the tablets, was tested by the method of the European Pharmacopoeia for testing solid pharmaceutical forms (chapter 2.9.3.). The medium used was phosphate buffer having pH 7.2.

A short description of data set [3]: most commonly represented sizes of crystals (photographs of the crystals). Type of data set: physicochemical. The source says:
The auxiliary substance in the fine-crystalline mixtures was Avicel®.

With `CC(C)Cc1ccc([C@@H](C)C(=O)O)cc1` [R(−)-ibuprofen, R(−)-2-(4-isobutylphenyl)-propionic acid], in data set [1], the “conversion of R(−)-enantiomer to the S(+) form” value was 50 to 60%.

`CN1C(C(=O)Nc2ccccn2)=C(O)c2ccccc2S1(=O)=O` [piroxicam, 4-hydroxy-2-methyl-3-[(2-pyridyl)aminocarbonyl]-2H-1,2-benzothiazin-1,1-dioxide]: in data set [2], the “release of the active ingredient from the tablet” value is given as “very fast release”.

For the molecule `CS(=O)(=O)Nc1ccc([N+](=O)[O-])cc1Oc1ccccc1` [nimesulide, N-(4-nitro-2-phenoxyphenyl)-methanesulphonamide], the “release of the active ingredient from the tablet” value in data set [2] is given as “very fast release”.

For `CC(C)Cc1ccc([C@H](C)C(=O)O)cc1` [coarse-crystalline S(+)-ibuprofen, S(+)-2-(4-isobutylphenyl)-propionic acid], the “lengthwise size of the stick-form crystals” value in data set [3] (starting material (photograph FIG. 7)) is given as “about 200 micrometers”. For the same molecule, in data set [3] (starting material, no solvent), the length of crystals amounted to 250 μm and the width of crystals was found to be 65 μm.
